Data: ChEMBL document CHEMBL1201862, “PubChem BioAssay data set” (2004)
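All cell lines were grown in 96-well plates and treated with compound for 48 hours. At the GI50, growth is halved.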 Active and inactive are the calls of the source. Cut-off read from the data, not from the text of the source: active = GI50 up to about 1.1 µM and inactive = higher.

Columns and labels:
Test in all cases: DTP human tumour cell line panel, 48 h
NCI-H460 = test system: NCI-H460
HL-60 = test system: HL-60
COLO 205 = test system: COLO 205
U-251 = test system: U-251
SF-539 = test system: SF-539
MDA-N = test system: MDA-N
OVCAR-3 = test system: OVCAR-3
T47D = test system: T47D
MDA-MB-231 = test system: MDA-MB-231
RPMI-8226 = test system: RPMI-8226
OVCAR-5 = test system: OVCAR-5
HT-29 = test system: HT-29
OVCAR-4 = test system: OVCAR-4
UACC-62 = test system: UACC-62
OVCAR-8 = test system: OVCAR-8
SN12C = test system: SN12C
K562 = test system: K562
MDA-MB-435 = test system: MDA-MB-435
Malme-3M = test system: Malme-3M
NCI/ADR-RES = test system: NCI/ADR-RES
NCI-H23 = test system: NCI-H23
M14 = test system: M14
HOP-92 = test system: HOP-92
CCRF-CEM = test system: CCRF-CEM
EKVX = test system: EKVX
SNB-75 = test system: SNB-75
SK-MEL-2 = test system: SK-MEL-2
MCF7 = test system: MCF7
KM12 = test system: KM12
SK-OV-3 = test system: SK-OV-3
MOLT-4 = test system: MOLT-4
RXF 393 = test system: RXF 393
SK-MEL-5 = test system: SK-MEL-5
LOX IMVI = test system: LOX IMVI
UO-31 = test system: UO-31
SR = test system: SR
ACHN = test system: ACHN
IGROV-1 = test system: IGROV-1
TK-10 = test system: TK-10
SF-268 = test system: SF-268
PC-3 = test system: PC-3
HCT-15 = test system: HCT-15
SNB-19 = test system: SNB-19
Hs-578T = test system: Hs-578T
SK-MEL-28 = test system: SK-MEL-28
786-0 = test system: 786-0
UACC-257 = test system: UACC-257
DU-145 = test system: DU-145
BT-549 = test system: BT-549
SW-620 = test system: SW-620
A498 = test system: A498
CAKI-1 = test system: CAKI-1
HOP-62 = test system: HOP-62
A549 = test system: A549
HCT-116 = test system: HCT-116
SF-295 = test system: SF-295
NCI-H522 = test system: NCI-H522
NCI-H226 = test system: NCI-H226
HCC 2998 = test system: HCC 2998

With `NCCN1C(=O)c2cc(Cl)c(Cl)cc2C1(O)c1ccc(Cl)cc1` (stereo not given) the GI50 (NCI-H460) was 1.79 µM (inactive), the GI50 (HL-60) was 1.67 µM (inactive) and the GI50 (COLO 205) was 1.65 µM (inactive). The GI50 (U-251) was 1.74 µM (inactive), the GI50 (SF-539) was 1.7 µM (inactive) and the GI50 (MDA-N) was 1.85 µM (inactive). For the same compound, the GI50 (OVCAR-3) was 2.19 µM (inactive), the GI50 (T47D) was 2.11 µM (inactive) and the GI50 (MDA-MB-231) was 2.01 µM (inactive). The GI50 (RPMI-8226) was 2.44 µM (inactive), the GI50 (OVCAR-5) was 3.33 µM (inactive) and the GI50 (HT-29) was 1.89 µM (inactive). For the same compound, the GI50 (OVCAR-4) was 1.76 µM (inactive), the GI50 (UACC-62) was 1.79 µM (inactive) and the GI50 (OVCAR-8) was 2.03 µM (inactive). The GI50 (SN12C) was 3.72 µM (inactive), the GI50 (K562) was 1.91 µM (inactive) and the GI50 (MDA-MB-435) was 1.68 µM (inactive). For the same compound, the GI50 (Malme-3M) was 1.71 µM (inactive), the GI50 (NCI/ADR-RES) was 2.42 µM (inactive) and the GI50 (NCI-H23) was 2.69 µM (inactive). For the same compound, the GI50 (M14) was 1.77 µM (inactive), the GI50 (HOP-92) was 2.91 µM (inactive) and the GI50 (CCRF-CEM) was 3.61 µM (inactive). The GI50 (EKVX) was 2.23 µM (inactive), the GI50 (SNB-75) was 2.28 µM (inactive) and the GI50 (SK-MEL-2) was 1.84 µM (inactive). The GI50 (MCF7) was 1.83 µM (inactive), the GI50 (KM12) was 2.32 µM (inactive) and the GI50 (SK-OV-3) was 13.5 µM (inactive). The GI50 (MOLT-4) was 2.05 µM (inactive), the GI50 (RXF 393) was 1.59 µM (inactive) and the GI50 (SK-MEL-5) was 1.6 µM (inactive). For the same compound, the GI50 (LOX IMVI) was 1.7 µM (inactive), the GI50 (UO-31) was 4.86 µM (inactive) and the GI50 (SR) was 2.02 µM (inactive). For the same compound, the GI50 (ACHN) was 2.19 µM (inactive), the GI50 (IGROV-1) was 2.07 µM (inactive) and the GI50 (TK-10) was 1.92 µM (inactive). For the same compound, the GI50 (SF-268) was 2.32 µM (inactive), the GI50 (PC-3) was 4.98 µM (inactive) and the GI50 (HCT-15) was 2400 nM. For the same compound, the GI50 (SNB-19) was 2.82 µM (inactive), the GI50 (Hs-578T) was 2.74 µM (inactive) and the GI50 (SK-MEL-28) was 1.75 µM (inactive). The GI50 (786-0) was 1.61 µM (inactive), the GI50 (UACC-257) was 1.87 µM (inactive) and the GI50 (DU-145) was 2.69 µM (inactive). The GI50 (BT-549) was 3.62 µM (inactive), the GI50 (SW-620) was 1.9 µM (inactive) and the GI50 (A498) was 2.92 µM (inactive). For the same compound, the GI50 (CAKI-1) was 2.54 µM (inactive), the GI50 (HOP-62) was 1.85 µM (inactive) and the GI50 (A549) was 2.09 µM (inactive). For the same compound, the GI50 (HCT-116) was 1.72 µM (inactive) and the GI50 (SF-295) was 2.01 µM (inactive).
In the case of `COC(=O)C12Oc3ccc(-c4ccc5c(c4O)C(O)=C4C(=O)CC(C)C(O)C4(C(=O)OC)O5)c(O)c3C(O)=C1C(=O)CC(C)C2O` (stereo not given), the GI50 (NCI-H460) is reported as 0.0421 µM (active), the GI50 (HL-60) is reported as 0.102 µM (active) and the GI50 (COLO 205) is reported as 0.0656 µM (active). The GI50 (U-251) was 0.0525 µM (active), the GI50 (SF-539) was 0.055 µM (active) and the GI50 (MDA-N) was 0.125 µM (active). For the same compound, the GI50 (OVCAR-3) was 0.0719 µM (active), the GI50 (T47D) was 0.25 µM (active) and the GI50 (MDA-MB-231) was 0.63 µM (active). For the same compound, the GI50 (RPMI-8226) was 0.0494 µM (active), the GI50 (OVCAR-5) was 0.119 µM (active) and the GI50 (HT-29) was 0.0495 µM (active). The GI50 (OVCAR-4) was 0.467 µM (active), the GI50 (UACC-62) was 0.0708 µM (active) and the GI50 (OVCAR-8) was 0.094 µM (active). For the same compound, the GI50 (SN12C) was 0.121 µM (active), the GI50 (K562) was 0.0753 µM (active) and the GI50 (MDA-MB-435) was 0.0634 µM (active). The GI50 (Malme-3M) was 0.0217 µM (active), the GI50 (NCI/ADR-RES) was 0.485 µM (active) and the GI50 (NCI-H23) was 0.0615 µM (active). For the same compound, the GI50 (M14) was 0.104 µM (active), the GI50 (HOP-92) was 0.466 µM (active) and the GI50 (CCRF-CEM) was 0.0255 µM (active). For the same compound, the GI50 (EKVX) was 0.0805 µM (active), the GI50 (SNB-75) was 0.241 µM (active) and the GI50 (SK-MEL-2) was 0.0798 µM (active). For the same compound, the GI50 (MCF7) was 0.151 µM (active), the GI50 (KM12) was 0.0555 µM (active) and the GI50 (SK-OV-3) was 0.103 µM (active). For the same compound, the GI50 (MOLT-4) was 0.0641 µM (active), the GI50 (RXF 393) was 0.0877 µM (active) and the GI50 (SK-MEL-5) was 0.0394 µM (active). The GI50 (LOX IMVI) was 0.151 µM (active), the GI50 (UO-31) was 0.156 µM (active) and the GI50 (SR) was 0.0234 µM (active). For the same compound, the GI50 (NCI-H522) was 0.0304 µM (active), the GI50 (ACHN) was 0.153 µM (active) and the GI50 (IGROV-1) was 0.104 µM (active). The GI50 (TK-10) was 0.231 µM (active), the GI50 (SF-268) was 0.0843 µM (active) and the GI50 (PC-3) was 0.0764 µM (active). For the same compound, the GI50 (HCT-15) was 216 nM, the GI50 (SNB-19) was 0.583 µM (active) and the GI50 (Hs-578T) was 0.135 µM (active). The GI50 (SK-MEL-28) was 0.0397 µM (active), the GI50 (786-0) was 0.314 µM (active) and the GI50 (UACC-257) was 0.073 µM (active). For the same compound, the GI50 (DU-145) was 0.547 µM (active), the GI50 (BT-549) was 0.262 µM (active) and the GI50 (SW-620) was 0.0889 µM (active). For the same compound, the GI50 (A498) was 0.544 µM (active), the GI50 (NCI-H226) was 0.416 µM (active) and the GI50 (CAKI-1) was 0.346 µM (active). The GI50 (HOP-62) was 0.0644 µM (active), the GI50 (A549) was 0.0702 µM (active) and the GI50 (HCT-116) was 0.126 µM (active). The GI50 (SF-295) was 0.211 µM (active).
In the case of `CC1C(=O)C23OC[C@@]1(C)C1(O)CC[C@@H](C)[C@]21CC3=O` (stereo not given in full), the GI50 (NCI-H460) is reported as > 100 µM (inactive), the GI50 (HL-60) is reported as > 100 µM (inactive) and the GI50 (COLO 205) is reported as > 100 µM (inactive). The GI50 (U-251) was > 100 µM (inactive), the GI50 (SF-539) was > 100 µM (inactive) and the GI50 (MDA-N) was > 100 µM (inactive). The GI50 (OVCAR-3) was > 100 µM (inactive), the GI50 (T47D) was > 100 µM (inactive) and the GI50 (MDA-MB-231) was > 100 µM (inactive). The GI50 (RPMI-8226) was > 100 µM (inactive), the GI50 (OVCAR-5) was > 100 µM (inactive) and the GI50 (HT-29) was > 100 µM (inactive). For the same compound, the GI50 (OVCAR-4) was > 100 µM (inactive), the GI50 (UACC-62) was > 100 µM (inactive) and the GI50 (OVCAR-8) was > 100 µM (inactive). The GI50 (SN12C) was > 100 µM (inactive), the GI50 (K562) was > 100 µM (inactive) and the GI50 (MDA-MB-435) was > 100 µM (inactive). The GI50 (Malme-3M) was > 100 µM (inactive), the GI50 (NCI/ADR-RES) was > 100 µM (inactive) and the GI50 (NCI-H23) was > 100 µM (inactive). For the same compound, the GI50 (M14) was > 100 µM (inactive), the GI50 (CCRF-CEM) was > 100 µM (inactive) and the GI50 (EKVX) was > 100 µM (inactive). The GI50 (SNB-75) was > 100 µM (inactive), the GI50 (SK-MEL-2) was > 100 µM (inactive) and the GI50 (MCF7) was > 100 µM (inactive). The GI50 (KM12) was > 100 µM (inactive), the GI50 (SK-OV-3) was > 100 µM (inactive) and the GI50 (MOLT-4) was > 100 µM (inactive). For the same compound, the GI50 (RXF 393) was > 100 µM (inactive), the GI50 (SK-MEL-5) was > 100 µM (inactive) and the GI50 (LOX IMVI) was > 100 µM (inactive). For the same compound, the GI50 (UO-31) was > 100 µM (inactive), the GI50 (SR) was > 100 µM (inactive) and the GI50 (NCI-H522) was > 100 µM (inactive). The GI50 (ACHN) was > 100 µM (inactive), the GI50 (IGROV-1) was > 100 µM (inactive) and the GI50 (TK-10) was > 100 µM (inactive). For the same compound, the GI50 (SF-268) was > 100 µM (inactive), the GI50 (PC-3) was > 100 µM (inactive) and the GI50 (HCT-15) was greater than 100000 nM. The GI50 (SNB-19) was > 100 µM (inactive), the GI50 (Hs-578T) was > 100 µM (inactive) and the GI50 (HCC 2998) was > 100 µM (inactive). The GI50 (SK-MEL-28) was > 100 µM (inactive), the GI50 (786-0) was > 100 µM (inactive) and the GI50 (UACC-257) was > 100 µM (inactive). For the same compound, the GI50 (DU-145) was > 100 µM (inactive), the GI50 (BT-549) was > 100 µM (inactive) and the GI50 (SW-620) was > 100 µM (inactive). For the same compound, the GI50 (NCI-H226) was > 100 µM (inactive), the GI50 (HOP-62) was > 100 µM (inactive) and the GI50 (A549) was > 100 µM (inactive). For the same compound, the GI50 (HCT-116) was > 100 µM (inactive) and the GI50 (SF-295) was > 100 µM (inactive).
